ChEMBL document CHEMBL5726143, “Aminoindazole derivatives as sodium channel inhibitors” (2019)

Biological target: Sodium channel protein type 9 subunit alpha (Homo sapiens, UniProt Q15858)
Experiment: In Vitro Electrophysiology: Electrophysiological studies are performed with an IonWorks Quattro (Molecular Devices Corp.) automated patch-clamp electrophysiology platform as described by (Schroeder K et al. Journal of Biomolecular Screening 2003, 8 (1), 50-64). Buffers for the experiments have the following composition (mM): Internal solution; K-gluconate 100, KCl 40, MgCl2 3.2, HEPES 5, EGTA 3, pH 7.3. To this amphotericin B is added to final concentration of 0.1 mg/ml to generate access solution. External solution; Dulbecco's Phosphate buffered saline (D-PBS) NaCl 137.93, KCl 2.67, KH2PO4 1.47, Na2HPO4 8.06, CaCl2 0.90, MgCl2 0.49. Prior to the experiment the cells expressing the voltage-gated ion channel of interest are detached from the tissue culture flasks, centrifuged and resuspended in D-PBS. Compounds are prepared and serially diluted in DMSO and finally diluted 1:100 in D-PBS. Cells are exposed to compounds through the pipetting system integrated into the platform and the voltage-gated ion channel of interest is activated with specific voltage stimulation protocols. The following voltage stimulation protocol is used for testing compounds against the voltage-gated sodium channel Nav1.7; from a holding potential of −100 mV a train of eight 60 ms depolarising steps to −20 mV at a frequency of 14 Hz are employed followed by a further step to −20 mV for 2000 ms. […]

Sequence of Sodium channel protein type 9 subunit alpha (Q15858 whole entry): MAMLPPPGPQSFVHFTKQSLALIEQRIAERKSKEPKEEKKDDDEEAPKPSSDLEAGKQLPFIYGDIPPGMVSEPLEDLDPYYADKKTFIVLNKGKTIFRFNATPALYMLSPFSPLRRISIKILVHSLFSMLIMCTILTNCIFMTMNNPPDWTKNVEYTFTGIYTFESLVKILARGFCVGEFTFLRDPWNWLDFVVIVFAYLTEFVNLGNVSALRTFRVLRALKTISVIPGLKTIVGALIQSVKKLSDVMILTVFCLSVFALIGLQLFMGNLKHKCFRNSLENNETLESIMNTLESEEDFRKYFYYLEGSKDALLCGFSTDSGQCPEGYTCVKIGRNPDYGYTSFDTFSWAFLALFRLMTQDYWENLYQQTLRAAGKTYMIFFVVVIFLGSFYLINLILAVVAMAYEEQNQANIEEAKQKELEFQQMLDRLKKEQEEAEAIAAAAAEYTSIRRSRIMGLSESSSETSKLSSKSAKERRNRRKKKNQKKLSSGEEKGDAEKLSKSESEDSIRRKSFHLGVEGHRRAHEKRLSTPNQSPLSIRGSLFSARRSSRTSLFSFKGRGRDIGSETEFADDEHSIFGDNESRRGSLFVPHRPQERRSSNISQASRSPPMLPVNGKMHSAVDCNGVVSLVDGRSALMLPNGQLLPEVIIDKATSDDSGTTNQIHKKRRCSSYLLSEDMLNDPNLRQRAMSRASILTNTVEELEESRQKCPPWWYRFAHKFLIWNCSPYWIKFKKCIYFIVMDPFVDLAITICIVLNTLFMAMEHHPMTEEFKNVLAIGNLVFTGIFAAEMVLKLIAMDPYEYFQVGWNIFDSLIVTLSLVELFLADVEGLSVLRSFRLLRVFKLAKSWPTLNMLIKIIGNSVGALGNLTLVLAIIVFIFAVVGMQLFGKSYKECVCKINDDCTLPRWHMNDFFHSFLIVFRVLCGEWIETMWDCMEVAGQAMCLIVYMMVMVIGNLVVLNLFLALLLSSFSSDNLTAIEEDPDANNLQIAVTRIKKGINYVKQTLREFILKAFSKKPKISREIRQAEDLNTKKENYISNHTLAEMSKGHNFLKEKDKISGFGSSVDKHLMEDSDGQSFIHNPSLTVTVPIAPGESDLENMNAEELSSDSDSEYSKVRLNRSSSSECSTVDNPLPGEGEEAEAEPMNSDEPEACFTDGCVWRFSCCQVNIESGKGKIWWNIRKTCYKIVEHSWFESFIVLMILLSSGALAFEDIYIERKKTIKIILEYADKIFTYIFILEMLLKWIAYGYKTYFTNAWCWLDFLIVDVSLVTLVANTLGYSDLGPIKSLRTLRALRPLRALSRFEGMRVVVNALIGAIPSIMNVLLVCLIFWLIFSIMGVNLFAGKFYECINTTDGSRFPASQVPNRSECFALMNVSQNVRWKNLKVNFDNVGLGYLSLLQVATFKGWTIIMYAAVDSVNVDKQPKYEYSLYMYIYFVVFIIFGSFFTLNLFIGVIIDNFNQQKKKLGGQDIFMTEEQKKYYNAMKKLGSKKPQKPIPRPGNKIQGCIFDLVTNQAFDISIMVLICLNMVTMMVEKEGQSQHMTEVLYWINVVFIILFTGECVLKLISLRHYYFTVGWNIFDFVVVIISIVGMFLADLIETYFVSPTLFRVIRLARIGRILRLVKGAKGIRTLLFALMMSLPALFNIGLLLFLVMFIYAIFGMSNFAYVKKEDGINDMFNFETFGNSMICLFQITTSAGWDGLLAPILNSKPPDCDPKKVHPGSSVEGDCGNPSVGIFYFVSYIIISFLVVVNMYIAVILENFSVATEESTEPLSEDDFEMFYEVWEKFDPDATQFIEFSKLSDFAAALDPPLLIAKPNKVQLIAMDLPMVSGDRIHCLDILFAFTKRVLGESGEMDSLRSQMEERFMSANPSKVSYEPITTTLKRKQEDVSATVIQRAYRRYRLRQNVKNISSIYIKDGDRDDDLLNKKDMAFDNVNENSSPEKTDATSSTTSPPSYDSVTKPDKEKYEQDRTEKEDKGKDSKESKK

IC50 [nM]	Structure (SMILES)
1230	COc1ccc(OCC(F)(F)C(F)(F)F)c(-c2ccc3c(N)nn(C)c3c2)c1
1070	COc1cccc(-c2ccc3c(N)nn(C)c3c2)c1OCC(F)F
